Experimental findings from patent US6855546B1, “Controlling availability or activity of proteins by use of protease inhibitors or receptor fragments” (Universiteit Utrecht, priority 1999, dated 2005) are described below.

Where a SMILES comes first, the peptide text is derived from it. The star is where a group is joined. Cbz = O=C(OCc1ccccc1)*

Assay type in all cases: cell-based, Chinese hamster
Test [1] concerns CHO-ts20 cells expressing GHR. Put plainly: 125I-GH uptake (internalization) kinetic experiment. The following applies: inhibitor 20 mM added 3 hours before; 125I-GH 8 nM bound on ice, incubated at 30° C. The procedure: FIG. 2. […] CHO-ts20 cells were incubated with or without inhibitors for 3 hours at 30° C., and put on ice for 60 minutes with ^125I-GH. The cells were then incubated at 30° C. as indicated. Background label was determined in untransfected cells and subtracted. Plotted are the amounts of ^125I-GH internalized as a percentage of the cell-associated radioactivity at the start of incubation. □, control (1% ethanol); ●, MG132; ◯, lactocystin; X, lactacystin β-lactone.
To confirm and quantify the effect of the proteasome inhibitors, we measured the uptake of ^125I-GH in a kinetic experiment. Cells were pretreated with the inhibitors, ^125I-GH was bound on ice, and cells were incubated for various periods of time (FIG. 2). At the end of the incubation period, uptake was determined by washing the cells at low pH to remove the label from the cell surface. Again, GH uptake was inhibited by the proteasome inhibitors: MG132 and lactacystin b-lactone reduced the uptake to approximately 25% of the control level. […] TCA-soluble radioactivity in the culture medium, derived from lysosomal degradation of ^125I-GH, increased after 15 minutes if no inhibitor was added; virtually no TCA-soluble radioactivity appeared if the inhibitors were present (not shown).
GH binding and internalization. ^125I-hGH was prepared using chloramine T (28). For internalization studies, cells were grown in 35 mm dishes, washed with aMEM, supplemented with 20 mM HEPES, incubated for 1 hour at 30° C. in aMEM/HEPES, ^125I-GH (8 nM) was bound on ice for 60 minutes in the absence or presence of excess unlabeled GH, and the cells were washed free of unbound GH and incubated for 0 to 60 minutes. If indicated, lactacystin or its b-lactone (20 mM), MG132 (20 mM), and ZL3vinylsulfone (20 mM), dissolved in either ethanol or dimethylsulfoxide, or only vehicle, were added 3 hours before the start of the experiment. Membrane-associated GH was removed by acid wash (0.15 M NaCl, 0.05 M glycine, pH 2.5) (29) and internalized GH was determined by measuring the radioactivity after solubilization of the acid-treated cells by 1 M NaOH.

The subject of test [2] is cell-surface GHR in CHO-ts20 cells. Put plainly: Degradation of cell-surface biotinylated GHR. The procedure:
(§1) FIG. 3. Effect of MG132 on GHR degradation in the presence of ligand. A. Cells were pulse labeled with ^35S-methionine and then chased in unlabeled methionine in the presence of 16 nM GH with or without MG132 for the times indicated. GHR was immunoprecipitated using an anti-cytosolic tail antibody. The radioactivity in the mature (upper) band (inset) was quantitated and plotted. □, control (1% ethanol); ●, MG132. B. Cells were biotinylated and incubated in the presence of GH with MG132 or with vehicle only at 30° C. for the time periods indicated. After streptavidin-bead purification aliquots of the cell lysates were analyzed by SDS-PAGF; western blots were incubated with a monoclonal antibody specific for the extracellular GHR domain and detected with enhanced chemifluorescence. The sharp band below the mature GHR (130 kDa) originated from a slight background staining of precursor GHR (110 kDa), due to incomplete removal of biotinylation reagent at cell lysis.
If proteasome inhibitors affect GHR-uptake, it is expected that the inhibitors prolong the lifetime of GHRs at the cell surface. To address this, we measured the effect of MG132 in a pulse-chase experiment. […] To assess the effect of MG132 more directly, we measured degradation of cell-surface biotinylated GHR after incubation in the presence of ligand (FIG. 3B). […] However, clearance from the cell surface was reduced >50% in the presence of MG132. […] The lifetime of this species was extended in the presence of MG132. Attempts to accumulate this species or other degradation products failed until now.
Cell surface biotinylation. CHO-ts20 cells, grown in 35 mm dishes, were incubated for 60 minutes at 30° C. in aMEN/HEPES, biotinylated on ice for 30 minutes using sulfo-NHS-SS-biotin (Pierce, Rockford, Ill.), and washed free of biotinylating reagents. For GH binding, the cells were incubated for 1 hour on ice in the presence of 16 nM GH with either 20 mM MG132 or 1% ethanol. The incubation was continued at 30° C. for various time periods in the presence of GH with MG132 or ethanol only. […]

Test [3] deals with mature GHR in CHO-ts20 cells. Put plainly: 35S-methionine pulse-chase of GHR in the presence of GH. The following applies: 16 nM GH. The procedure: as §1, with “The sharp band below the mature GHR (130 kDa) originated from a slight background staining of precursor GHR (110 kDa), due to incomplete removal of biotinylation reagent at cell lysis.” left out
If proteasome inhibitors affect GHR-uptake, it is expected that the inhibitors prolong the lifetime of GHRs at the cell surface. To address this, we measured the effect of MG132 in a pulse-chase experiment. […] To assess the effect of MG132 more directly, we measured degradation of cell-surface biotinylated GHR after incubation in the presence of ligand (FIG. 3B). […]
Metabolic labeling. […] The radioactivity was determined using a Molecular Dynamics phosphoimager (STORM860 equipped with ImageQuant software, Molecular Dynamics, Sunnyvale, Calif.). […]

Test [4] relates to CHO-ts20 cells expressing the rabbit GHR. Put plainly: Cy3-GH endocytosis by confocal microscopy, wild-type GHR. The following applies: 20 mM inhibitor 3 hours at 30° C., then Cy3-GH 30 minutes. The procedure:
FIG. 1. Effect of proteasome inhibitors on Cy3-GH and Cy3-transferrin endocytosis. CHO-ts20 cells, expressing either wild-type (A, D, G, C, F, I) or truncated GHR (B, E, H), were incubated with vehicle (A-C) or with 20 mM MG132 (D-F) or 20 mM lactacystin (G-I) for 3 hours at 30° C.; then Cy3-GH (A, B, D, E, G, H), or Cy3-transferrin (C, F, I) were added for 30 minutes, and the cells were washed, fixed and the fluorescence was visualized by confocal microscopy. If excess labeled ligand was added, no uptake was observed. If the cells in D, G were treated at pH 2.5 before fixation, virtually no label was visible (not shown).
Down-regulation of signal-transducing membrane receptors is part of highly programmed cascades of events leading both to extinction of the signaling pathway(s) and to rapid degradation of the primary messenger: the receptor and its ligand (3, 4, 5, 6, 7). In the absence of ligand, the half-life of GHR is approximately 1 to 2 hours depending on the cell system used. The assumption is that this is mainly due to a proteolytic cleavage in the extracellular domain of the GHR resulting in soluble GH-binding protein (8). If ligand is present, a completely different scenario follows: two GHR polypeptides dimerize, they are phosphorylated by the tyrosine kinase Jak2 and ubiquitinated, and the complex is endocytosed. […]

For test [5], the system named is GHR in CHO-ts20 cells (temperature-sensitive E1). Kind of test: GH-induced GHR degradation, quantitative western blot, CHO-ts20. The following applies: 3 hours. As for the experimental part:
(§2) FIG. 4. GH-induced receptor degradation depends on an intact ubiquitin conjugation system. CHO-ts20 and CHO-E36 cells were incubated at the permissive or non-permissive temperature for 3 hours in the presence or absence of GH. Cells were lysed and aliquots were analyzed by western blotting and enhanced chemifluorescence. M, mature GHR, P, precursor GHR.
(§3) To investigate whether the ubiquitin system selects the GHR for truncation by the proteasome, we expressed the receptor in CHO-ts20 cells harboring a temperature-sensitive ubiquitin-activating enzyme, E1. The cells were incubated for 60 minutes at 42° C. (sufficient to stop generation of newly ubiquitinated proteins), followed by 3 hours at 40° C. in the presence or absence of GH, and the amounts of GHR were determined by quantitative western blot analysis (FIG. 4). At the permissive temperature, incubation in the presence of GH decreased the steady-state amounts of GHR. If the cells were kept at 40° C. in the presence of GH, the amount of GHR increased to 170%. To ascertain that this increase is solely due to a defective ubiquitin conjugation system, we used the CHO-E36 cells with an intact ubiquitin conjugation system at 40° C. As expected, in these cells the steady state of mature GHR decreased to approximately 50% of that without GH, both at 30 and 40° C. […]
(In general: In western blotting, separated proteins are transferred to a membrane and probed.)

The next test has as its system GHR in CHO-E36 cells. Put plainly: GH-induced GHR degradation, quantitative western blot, CHO-E36. The following applies: CHO-E36, both at 30 and 40° C. The procedure: as §2, §3

For `CC(C)C[C@@H](C=O)NC(=O)[C@H](CC(C)C)NC(=O)[C@H](CC(C)C)NC(=O)OCc1ccccc1` [MG132] (Cbz-Leu-Leu-Leu-aldehyde), the “125I-GH uptake relative to control” value in test [1] is on record as “approximately 25 % of the control level”. For the same compound, the “lifetime of biotinylated 85-kDa intermediate degradation product” value in test [2] (in the presence of GH) was “extended”. In test [2] (in the presence of GH (16 nM), 20 mM MG132, 30° C.), the “reduction of GHR clearance from the cell surface” value is listed as over 50%. Also, in test [3], the “degradation rate of mature GHR” value was “affects the degradation rate of mature GHR” and the “membrane transport from ER to the Golgi complex (maturation kinetics 110 kDa to 130 kDa)” value is recorded as “does not affect membrane transport from ER to the Golgi complex”. Further, the “Cy3-GH uptake (intracellular fluorescent label)” value in test [4] is on record as “hardly any label was present intracellularly”.

Regarding `CC(C)[C@H](O)[C@@]12NC(=O)[C@H](C)[C@@H]1OC2=O` [lactacystin b-lactone], the “125I-GH uptake relative to control” value in test [1] was “approximately 25 % of the control level”.

Regarding `CC(=O)N[C@@H](CSC(=O)[C@]1([C@@H](O)C(C)C)NC(=O)[C@H](C)[C@@H]1O)C(=O)O` [lactacystin], the “125I-GH uptake relative to control” value in test [1] was “somewhat less effective”. In addition, the “Cy3-GH uptake (intracellular fluorescent label)” value in test [4] is given as “hardly any label was present intracellularly”.

Consider “GH: growth hormone, ligand of the growth hormone receptor”, for which the “amount of GHR in the presence of GH (percentage of mature GHR present without GH)” value in test [5] (CHO-ts20, 40° C. (non-permissive)) is on record as 170%. Further, the “steady-state amount of GHR in the presence of GH” value in test [5] (CHO-ts20, permissive temperature) is on record as “decreased”. In test [2] (incubation in the presence of ligand, 30° C.), the “disappearance of cell-surface biotinylated GHR” value was “induced a rapid disappearance of the GHR”. The “steady state of mature GHR relative to that without GH” value with GHR in CHO-E36 cells was “approximately 50%”.
